Laboratory results taken from patent US5783599A, “Methods of treating cancer and viral infections with 5-iodo-6-amino-and 5-iodo-6-nitroso-1 2-benzopyrones” (priority 1996, dated 1998).
In brackets after ≈: the same amount, converted by molar mass. Entries after “also recorded” stand apart in the source; their conditions may differ. Like-named read-outs stand apart in the source and are kept apart here.

Experiments:
[1] = target: T1, ADPRT (Bos taurus, UniProt P18493); settings: literature; cited from earlier work
[2] = test system: E-Ras cells; test: DNA synthesis ([3H]deoxyadenosine incorporation) in E-Ras cells; type: cell-based; settings: 5-I-6-ABP 0.05 mM, 72 h, N=5
Text: (§1) In this study, the following cell lines were used. Cell line CG I, a non-tumorigenic hybrid of HeLa cells with normal human fibroblasts, and its is tumorigenic revertant counterpart, CG1 III, as described in Science, 215:252 (1982). These cells were obtained from UC Irvine. […] HEp-2 human epidermoid carcinoma cells were provided by Dr. L. Aurelian (University of Maryland). E-Ras cells were-obtained from University of Cincinnati and represent an endothelial cell line transfected with pSV2neo plasmid as described in Proc. Natl. Acad. Sci., 76:1373 (1979). This cell line contains several copies of the activated human Ha-ras oncogene.
(§2) Cells were seeded to 2 cm^2 wells of Falcon tissue culture plates at a density of 6000±650 cells per well. Inhibitors were added to the seeding suspensions from stock solutions of 100 mM 6-ABP in water or 50 mM 5-1-6-ABP in dimethylsulfoxide (DMSO). […] Growth media were Dulbeccos MEM (lines #1 and 2), and Dulbeccols Modified Eagle's Medium, containing 10% fetal bovine serum and penicillin (100 μg/ml) plus streptomycin (100 μg/ml). […] Cells were then lysed in 500 μl of 0.06M NaOH and the acid precipitable radioactivity was determined.

[3] = test system: GC1 III cells; test: DNA synthesis ([3H]deoxyadenosine incorporation) in CG1 III cells; type: cell-based; settings: Homo sapiens, 5-I-6-ABP 0.05 mM, 72 h, N=5
Text: as §1, §2

[4] = Solubility; type: physicochemical; settings: 25° C.
Text: The color of the compound in the solid state depends on particle size. Large crystals are a very deep brown, small crystals, a medium brown, and when pulverized, the material in all cases is orange-colored.

[5] = Passage of blood brain barrier; settings: in vivo
[6] = test system: HIV; test: HIV replication by p24 formation (ELISA) in cell culture; type: cell-based
[7] = Metabolic conversion in liver / intracellular oxidation and cell penetration
[8] = test system: CMV; test: CMV replication in infected cell culture; type: cell-based
[9] = test system: HSV; test: HSV replication in infected cell culture; type: cell-based
Procedure: Herpes simplex virus (HSV) type 1 and 2 (F and G strains, respectively) were grown in HEp-2 cells and titered by plaque assay under liquid overlay as described in Proc. Natl. Acad. Sci., 83:2787 (1986). Virus titers for CMV are expressed as the highest dilution that causes 50% cytopathic effect (TCID50). Virus titers for HSV-1 and HSV-2 are expressed as […] per ml. HIV titers are expressed as syncytial forming units (SFU per ml), assayed on MT2 cells. Vero, HEp-2 or MRC-5 cells are exposed to various concentrations from 0.1 to 10 mM of 5-I-6-ABP in various time intervals before infecting them with HSV-1 or HSV-2 (5-10 PFU/cell). Virus titers are determined 24 hours later.

[10] = test system: HEp-2 cells; test: DNA synthesis ([3H]deoxyadenosine incorporation) in HEp-2 cells; type: cell-based; settings: Homo sapiens, 5-I-6-ABP 0.05 mM, 72 h, N=5, read-out: % Inhibition of DNA synthesis
Text: as §1, §2

[11] = test system: HIV; test: Anti-HIV activity, overall comparison with 6-ABP; type: cell-based
[12] = test system: AA-2 or MT-2 cells; test: Cell count and viability of AA-2 and MT-2 cells; type: cell-based, human
Procedure: The effects of 5-I-6-ABP treatment of AA-2 and MT-2 cells was directly analyzed by cell count and viability tests including cloning efficiency and trypan blue uptake. The AA2 or MT-2 cell culture having initial cell count per well 0.5×10^5 was submitted to treatment with 3 mM of 6-ABP and or with 0.1 mM of 5-I-6-ABP and compared to untreated cell culture. The cells were counted 4 days after the treatment with 5-I-6-ABP and 6-ABP.

[13] = Stability in solution; type: physicochemical
Text: 5-I-6-ABP, is a reasonably soluble molecule. It can form approximately 0. […] Such solution would be reasonably stable for use as an intravenous infusion formulation. The parenteral route of administration seems to be the most likely effective mode of administration against cancer or HIV infections at any stage of the disease. […] 5-I-6-ABP is most probably also effective for treatment of AIDS related Kaposi's sarcoma of inner organs. Properly formulated, it will also effect skin disorders. The color of the compound in the solid state depends on particle size. Large crystals are a very deep brown, small crystals, a medium brown, and when pulverized, the material in all cases is orange-colored.

[14] = test system: HIV; test: HIV proliferation in human lymphoblasts; type: cell-based
Text: The HIV isolates used in these experiments are isolated from the blood of infected patients. After isolation, HIV infection is established in CEM cells, and these infected cells are used to produce a stock of HIV virus that is titered to measure the concentration of tissue culture infective doses (TCID).
The cells are placed in culture in medium containing IL-2, but in the absence of additional 5-I-6-ABP, and monitored at 6 days and 12 days for the production of HIV-p24 core antigen, or for measurements of particulate reverse transcriptase.
HIV p24 antigen is measured by ELISA, with a cutoff of 5 pgm/ml. Particulate reverse transcriptase is measured by centrifuging down free virus from tissue culture fluids, lysing HIV in a buffer containing detergent, magnesium, H3-labelled dTTP and poly rA.oligo dT primer, incubating for 1 hour, and measuring precipitable radioactivity, and is expressed as cpm per volume of HIV-containing medium.

[15] = test system: CG1 I cells; test: DNA synthesis ([3H]deoxyadenosine incorporation) in CG1 I cells; type: cell-based; settings: Homo sapiens, 5-I-6-ABP 0.05 mM, 72 h, N=5
Text: as §1, §2

[16] = test system: other enzymes; test: Specificity towards other enzymes
[17] = test system: virus; test: Antiviral effect in in vitro experiments at 0.35 mM; type: cell-based; settings: 100 mg/kg corresponding to 0.35 mM
[18] = test system: malignant cell proliferation; test: Malignant cell proliferation / cytostatic activity in cell cultures, overall; type: cell-based
Text: as §1
Cells were seeded to 2 cm^2 wells of Falcon tissue culture plates at a density of 6000±650 cells per well. Inhibitors were added to the seeding suspensions from stock solutions of 100 mM 6-ABP in water or 50 mM 5-1-6-ABP in dimethylsulfoxide (DMSO). […] Growth media were Dulbeccos MEM (lines #1 and 2), and Dulbeccols Modified Eagle's Medium, containing 10% fetal bovine serum and penicillin (100 μg/ml) plus streptomycin (100 μg/ml). After incubation for 72 hours at 37° C. in a 5% CO2 humidified atmosphere, incorporation of [^3 H] deoxyadenosine (ICN, 18 Ci/mmol) into DNA was tested as follows: [^3 H] deoxyadenosine (450,000 dpm in 40 μl) of medium was added per well (each containing 600 μl of medium) and incubation at 37° C. was continued for 1 hour, followed by removal of the medium and rinsing of the wells 3 times with phosphate-buffered saline. Cells were then lysed in 500 μl of 0.06M NaOH and the acid precipitable radioactivity was determined.

[19] = test system: HIV; test: Cytopathogenic effect of HIV on MT-2 cells; type: cell-based
[20] = test system: 14C cells; test: DNA synthesis ([3H]deoxyadenosine incorporation) in 14C cells; type: cell-based; settings: Rattus norvegicus, 5-I-6-ABP 0.05 mM, 72 h, N=5, read-out: % Inhibition of DNA synthesis
Text: as §1, §2

[21] = General toxicity
[22] = test system: HIV; test: Inhibition of syncytia formation by HIV in MT-2 cells; type: cell-based
[23] = test system: Rat-1 cells; test: DNA synthesis ([3H]deoxyadenosine incorporation) in Rat-1 cells; type: cell-based; settings: 5-I-6-ABP 0.05 mM, 72 h, N=5
Text: as §1, §2

[24] = Toxicity after intraperitoneal administration; type: in vivo, rat
Procedure: Toxicological tests administering 5-I-6-ABP to mice were performed under the following conditions.
[…] […] […] In in vitro experiments, it was shown that at the concentration 100 mg/kg corresponding to 0.35 mM, the antiviral effect is maximal.

[25] = target: T1, ADPRT; test: Inhibition of ADPRT / binding to ADPRT (I50, Ki); type: biochemical
Text: Their biological action spectrum is nearly the same as that of 6-ABP, except that their potency is about 10-50 times greater. Such potency is particularly well documented in case of 5-I-6-ABP against malignant cell proliferation in cell cultures. […] This effectivity is 10-20 times higher than 6-ABP.
The 6-amino group of 5-I-6-ABP is rapidly oxidized intracellularly to 5-I-6-NOBP which, by binding to the Zn^2+ -finger domain of ADPRT, destabilizes the tightly chelated Zn^2+ by the oxidation of the thiol groups in the Zn^2+ finger polypeptide, thus ejecting Zn^2+. In this way, 5-I-6-ABP effectively inactivates the ADPR-forming activity of this protein and converts it to a DNA binding protein that reacts with "internal domains" of certain double stranded DNA (Biochemistry, 28:5670 (1989); Biochem. Biophys. Res. Commun., 167:842 (1990)). These DNA domains include abnormally replicating DNA structures in tumorigenic or proliferative cells and in viral DNAs, probably at the integration sites.

[26] = test system: HIV; test: Cytopathogenic effect of HIV on AA-2 cells; type: cell-based

T1 sequence (P18493 whole entry): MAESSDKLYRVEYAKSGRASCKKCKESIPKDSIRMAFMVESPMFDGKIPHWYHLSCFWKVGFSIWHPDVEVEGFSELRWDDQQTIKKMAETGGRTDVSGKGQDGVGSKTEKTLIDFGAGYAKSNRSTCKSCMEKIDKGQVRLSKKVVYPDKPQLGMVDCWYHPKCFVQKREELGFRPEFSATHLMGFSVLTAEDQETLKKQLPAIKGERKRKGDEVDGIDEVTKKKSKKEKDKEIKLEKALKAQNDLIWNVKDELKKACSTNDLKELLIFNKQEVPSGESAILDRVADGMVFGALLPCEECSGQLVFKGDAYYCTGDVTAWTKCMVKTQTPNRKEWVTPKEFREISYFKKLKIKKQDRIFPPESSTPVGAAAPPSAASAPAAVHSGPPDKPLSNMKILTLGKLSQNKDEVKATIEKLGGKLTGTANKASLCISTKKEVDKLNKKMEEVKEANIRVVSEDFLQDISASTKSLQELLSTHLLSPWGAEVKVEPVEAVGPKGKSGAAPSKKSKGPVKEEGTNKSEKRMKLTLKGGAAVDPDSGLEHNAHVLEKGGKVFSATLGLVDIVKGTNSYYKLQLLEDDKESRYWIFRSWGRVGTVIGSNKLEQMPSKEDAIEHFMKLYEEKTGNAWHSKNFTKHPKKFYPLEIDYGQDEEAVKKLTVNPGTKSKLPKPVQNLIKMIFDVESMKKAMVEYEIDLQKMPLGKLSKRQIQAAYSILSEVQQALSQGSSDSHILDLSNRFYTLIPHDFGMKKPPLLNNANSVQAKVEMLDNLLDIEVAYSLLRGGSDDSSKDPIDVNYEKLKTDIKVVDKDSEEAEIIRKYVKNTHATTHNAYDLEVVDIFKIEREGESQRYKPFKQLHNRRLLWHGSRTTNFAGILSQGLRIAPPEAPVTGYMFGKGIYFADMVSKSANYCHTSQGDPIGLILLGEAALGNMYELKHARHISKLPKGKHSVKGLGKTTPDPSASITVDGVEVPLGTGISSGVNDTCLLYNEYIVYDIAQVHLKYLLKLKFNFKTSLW

O=c1ccc2ccccc2o1 [1,2-benzopyrone (coumarin), 1,2-benzopyrone]
ADPRT ligand [1]: inhibitory ligand

Nc1ccc2oc(=O)ccc2c1I [5-I-6-ABP, 5-iodo-6-amino-1,2-benzopyrone]
inhibition at 50 µM [2]: -81.8%
inhibition at 50 µM [3]: -64.4%
solubility ([4]; water, read-out: solubility in water (saturated)): 0.37 mM (≈ 106 µg/mL)
solubility ([4]; organic solvent or mixture, DMSO, read-out: solubility in DMSO (saturated)): 1900 mM (≈ 545000 µg/mL)
solubility ([4]; organic solvent or mixture, ethanol, read-out: solubility in ethanol (saturated)): 4.7 mM (≈ 1350 µg/mL)
blood brain barrier passage [5]: appears to cross the blood brain barrier
p24 protein formation, effect relative to 3 mM 6-ABP [6]: nearly as effective
suppressing effect on p24 generation [6]: almost equivalent suppressing effect on p24 generation
cell penetration ([7]; most mammalian cells, pH 7.2-7.4): to a limited degree
intracellular oxidation at 6-amino position ([7]; to 5-I-6-NOBP): rapid oxidation
metabolic conversion in the liver ([7]; to 5-I-6-nitroBP, per os): rapid conversion in the liver
CMV inhibition [8]: specific, potent and non-toxic inhibitor; also recorded: effectively inhibits CMV growth
HSV inhibition [9]: specific, potent and non-toxic inhibitor
effect of cell type on inhibitory effect ([9]; Vero, HEp-2 or MRC-5 cells, 0.1 to 10 mM): not affected by cell type
percent change in DNA synthesis vs control at 50 µM [10]: -52.4%
anti-HIV activity [11]: specific, potent and non-toxic inhibitor; also recorded: highly effective against HIV
effectivity against HIV relative to 6-ABP [11]: 10-20 times
inhibition of HIV replication, reversibility [11]: temporary, reversible
cytotoxicity [12]: does not involve cytotoxicity
effect on cell proliferation ([12]; 3 mM 6-ABP, 0.1 mM 5-I-6-ABP, 4 days): inhibitory effect on cell proliferation
stability in water, ethanol and DMSO ([13]; 25° C.): stable in all of these solvents
stability of aqueous solution ([13]; about 0.4 mM in water, pH 7.2-7.9, room temperature): stable for months at room temperature
stability with respect to boiling water ([13]; boiling water): stable with respect to boiling water
degraded ([13]; water, kept in the dark, months at room temperature, read-out: decomposition in aqueous solution): < 0.1%
inhibition of HIV, duration [14]: temporary and reversible
inhibition at 50 µM [15]: -7.6%
activation or inhibition of other enzymes [16]: no other enzymes are activated or inhibited
antiviral effect [17]: maximal
cellular toxicity of cytostatic effect [18]: do not involve cellular toxicity
replication of tumorigenic cell types ([18]; 6 cell lines, Table 1): profoundly inhibited
potency relative to 6-ABP ([18]; biological action spectrum, vs 6-ABP): 10-50 times
antitumor activity relative to 6-ABP ([18]; vs 6-ABP): at least 10 times
cytopathogenic effect of HIV, effectiveness relative to 6-ABP [19]: nearly as effective
percent change in DNA synthesis versus control at 50 µM [20]: -69.2%
toxicity [21]: completely nontoxic; also recorded: absence of toxicity
inhibition of syncytia formation [22]: complete
inhibition of syncytia formation relative to 3 mM 6-ABP [22]: only slightly less inhibitory
inhibition at 50 µM [23]: -35.6%
toxic effects, chronic ([24]; chronic administration, 100 and 500 mg/kg, several weeks): did not show any toxic effects
toxic effects, subacute ([24]; rats, i.p., 100 and 59 mg/kg in DMSO once a day, four days): no apparent toxic effects
IC50 [25]: 19 µM
Ki [25]: 2 µM
inhibition of / binding to ADPRT [25]: potent inhibitor of ADPRT; also recorded: much tighter binding
times more potent than 6-ABP (on a concentration basis) ([25]; vs non-iodinated 6-ABP): about 10 times
cytopathogenic effect of HIV, effectiveness relative to 6-ABP [26]: nearly as effective
